Experimental data as given in ChEMBL document CHEMBL1201862, “PubChem BioAssay data set” (2004).
Active and inactive are the calls of the source.

Tests used:
[1] = target: T1, Endoribonuclease toxin MazF (Escherichia coli K-12, UniProt P0AE70); experiment: MazF endoribonuclease activators, SAR follow-up, biochemical, fluorescence, single-stranded RNA substrate (AID 588603); type: functional
T1 sequence (P0AE70 whole entry): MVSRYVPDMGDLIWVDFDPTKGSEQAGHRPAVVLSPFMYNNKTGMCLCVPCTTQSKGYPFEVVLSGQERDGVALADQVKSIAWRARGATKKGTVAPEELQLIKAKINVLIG

[2] = target: T1, Endoribonuclease toxin MazF; experiment: MazF toxin RNase activators, dose response, biochemical, fluorescence, single-stranded RNA substrate, uHTS hits (AID 588481); type: functional
[3] = tested on: MEF; experiment: SAR analysis of small molecule cytotoxicity of MazEF TA System activators in embryonic fibroblast (MEF) cells. [Related pubchem assays (depositor defined):AID504720, AID504743]; type: functional; settings: Mus musculus
[4] = target: T1, Endoribonuclease toxin MazF; experiment: SAR analysis of small molecule activators of the MazEF TA System via a fluorescence-based single-stranded RNase assay counterscreen. [Related pubchem assays (depositor defined):AID504720, AID504743]; type: functional
[5] = target: T1, Endoribonuclease toxin MazF; experiment: fluorescent RNA oligo signal without MazF, dose response, counter-screen for MazEF activator project, biochemical, fluorescence, single-stranded RNase substrate (AID 588502); type: functional
[6] = Luminescence Cell-Based Dose Response HTS to Identify Activators of Luciferase Translation or Activity in H4 […] Cells. [Related pubchem assays: 1829 (Project Summary), 1814 (Primary HTS)]; type: functional
[7] = tested on: H4; experiment: Luminescence Cell-Based Dose Response HTS to Identify Activators of 5'UTR Stem-Loop Driven Prion Protein mRNA Translation in H4 Neuroglioblastoma Cells. [Related pubchem assays: 1829 (Project Summary), 1814 (Primary HTS)]; type: functional; settings: Homo sapiens
[8] = target: T2, High affinity choline transporter 1 (Homo sapiens, UniProt Q9GZV3); experiment: CHT activators, dose response, cell-based, 10-point CRC, membrane potential dye (AID 602376); type: functional
T2 sequence (Q9GZV3 whole entry): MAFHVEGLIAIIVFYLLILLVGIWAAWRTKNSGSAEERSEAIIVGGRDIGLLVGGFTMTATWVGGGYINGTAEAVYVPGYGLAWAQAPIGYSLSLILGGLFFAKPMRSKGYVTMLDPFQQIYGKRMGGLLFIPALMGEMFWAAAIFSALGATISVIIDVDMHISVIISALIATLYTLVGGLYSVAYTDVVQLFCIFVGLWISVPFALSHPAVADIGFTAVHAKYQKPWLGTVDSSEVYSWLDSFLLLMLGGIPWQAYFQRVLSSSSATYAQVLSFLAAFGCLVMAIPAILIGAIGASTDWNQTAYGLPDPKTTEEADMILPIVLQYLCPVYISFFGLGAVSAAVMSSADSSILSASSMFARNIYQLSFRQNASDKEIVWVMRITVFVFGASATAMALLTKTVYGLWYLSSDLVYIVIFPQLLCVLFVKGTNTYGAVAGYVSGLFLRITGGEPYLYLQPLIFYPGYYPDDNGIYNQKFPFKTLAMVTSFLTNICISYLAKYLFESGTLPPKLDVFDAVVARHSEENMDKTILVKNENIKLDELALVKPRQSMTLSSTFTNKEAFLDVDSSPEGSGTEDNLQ

[9] = target: Benomyl/methotrexate resistance protein (Candida albicans, UniProt P28873); experiment: CaMdr1 efflux pump inhibitor potency, dose response, singleplex, Cherry Pick2 set (AID 623992); type: functional; settings: read-out: EC50_MICROM
Benomyl/methotrexate resistance protein, sequence (P28873 whole entry): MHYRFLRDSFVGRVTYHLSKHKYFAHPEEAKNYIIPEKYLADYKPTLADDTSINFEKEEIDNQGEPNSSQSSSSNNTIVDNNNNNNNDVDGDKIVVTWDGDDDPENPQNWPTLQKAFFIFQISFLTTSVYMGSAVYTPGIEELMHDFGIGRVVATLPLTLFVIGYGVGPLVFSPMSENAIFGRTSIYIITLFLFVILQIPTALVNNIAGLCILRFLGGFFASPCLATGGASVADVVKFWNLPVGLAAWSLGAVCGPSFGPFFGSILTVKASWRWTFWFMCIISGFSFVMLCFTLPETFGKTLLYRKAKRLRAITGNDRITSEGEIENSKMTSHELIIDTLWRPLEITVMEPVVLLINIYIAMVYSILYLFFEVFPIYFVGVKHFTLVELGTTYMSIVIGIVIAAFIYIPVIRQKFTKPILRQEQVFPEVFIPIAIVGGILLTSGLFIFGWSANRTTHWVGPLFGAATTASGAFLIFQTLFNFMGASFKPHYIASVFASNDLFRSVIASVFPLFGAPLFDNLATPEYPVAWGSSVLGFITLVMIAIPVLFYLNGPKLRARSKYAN

[10] = tested on: Candida albicans; experiment: growth inhibition of resistant C. albicans, dose response, CaCi-8 strain, fluconazole, dry powder, set 4 (AID 488950); type: functional, organism-based
[11] = tested on: Candida albicans; experiment: C. albicans growth inhibition with fluconazole, dose response, antifungal resistance reversal project, CaCi-2 strain, Alamar Blue, dry powder, set 2 (AID 488930); type: functional, organism-based
[12] = tested on: Candida albicans; experiment: fluconazole resistance reversal in C. albicans, dose response, CaCi-2 strain, Alamar Blue, dry powder, set 4 (AID 488943); type: functional, organism-based
[13] = tested on: Candida albicans; experiment: growth inhibition of azole-resistant C. albicans, dose response, CaCi-8 strain, Alamar Blue, dry powder, set 2 (AID 488909); type: functional, organism-based
[14] = tested on: HEK293; experiment: cytotoxicity in HEK293T NF-kB-Luc cells, SAR follow-up, cytotoxicity control for NF-kB activator project, cell-based, resazurin fluorescence (AID 493251); type: functional; settings: Homo sapiens
[15] = tested on: Jurkat; experiment: SAR Analysis of small molecule inhibitors of T-cell specific antigen receptor-induced NF-kB activation in a Jurkat cell line using a luminescence assay - Set 2. [Related pubchem assays (depositor defined):AID435003, AID435012, AID465]; type: functional, cell-based; settings: Homo sapiens
[16] = tested on: HEK293; experiment: SAR Analysis of small molecule inhibitors of T-cell specific antigen receptor-induced NF-kB activation in a HEK-293T cell line using a luminescence assay - Set 2. [Related pubchem assays (depositor defined):AID435003, AID435012, AID489026]; type: functional, cell-based; settings: Homo sapiens

For `O=C1c2ccccc2C(Nc2ccc(S(=O)(=O)N3CCCCCC3)cc2)N1c1ccccn1` (stereo unspecified), the EC50 [1] was 19.3 µM (active), the EC50 [2] was 16.1 µM (active) and the CC50 [3] was > 99 µM (inactive). The EC50 [4] was > 99 µM (inactive) and the EC50 [5] was > 99 µM (inactive).
With `CCC1=[N+](CC(=O)c2ccc(C)cc2)CCn2c(C)ccc21` the EC50 [6] was > 120 µM (not active), the EC50 [7] was 28.3 µM (active) and the EC50 [8] was 13 µM (active).
In the case of `O=C(/C=C/c1cccs1)N1CCC2(CC1)Oc1ccc(F)cc1C(=O)C21CC(c2ccccc2)=NO1` (stereo unspecified), the EC50 [9] is reported as 29.7 µM (active).
In the case of `O=C(c1ccc(Cl)cc1)N1CCN(c2ccnc3ccc(Cl)cc23)CC1`, the AC50 [10] is reported as 1.47 µM (active), the AC50 [11] is reported as < 0.8 µM (active) and the AC50 [12] is reported as 0.397 µM (active). For the same compound, the AC50 [13] was 9.92 µM (active).
With `N#Cc1cccc(NC(=O)c2ccc([N+](=O)[O-])o2)c1` the IC50 [14] was 57.4 µM (inactive), the IC50 [15] was 18.1 µM (active) and the IC50 [16] was 32.9 µM (inactive).
